# Measured values taken from patent US12600709B2, “Nonpeptide somatostatin type 5 receptor agonists and uses thereof” (Crinetics Pharmaceuticals, Inc., priority 2019, dated 2026).
# Where two headings read alike, the source gives them in different places.
# Key:
# [1] = molecular target: T1, human somatostatin receptor subtype 5 (Homo sapiens, UniProt P35346); assay: cAMP assay for SST5R (inhibition of cAMP in CHO-K1 cells); assay type: cell-based; settings: for EC50: inhibition of cAMP via human SST5 receptor, read-out: SST5 potency; for Fold selectivity for SST5 vs SST2: class symbols, SST5 receptor over SST2 receptor
# T1 construct: expressed in transfected cells
# T1 sequence (P35346 whole entry): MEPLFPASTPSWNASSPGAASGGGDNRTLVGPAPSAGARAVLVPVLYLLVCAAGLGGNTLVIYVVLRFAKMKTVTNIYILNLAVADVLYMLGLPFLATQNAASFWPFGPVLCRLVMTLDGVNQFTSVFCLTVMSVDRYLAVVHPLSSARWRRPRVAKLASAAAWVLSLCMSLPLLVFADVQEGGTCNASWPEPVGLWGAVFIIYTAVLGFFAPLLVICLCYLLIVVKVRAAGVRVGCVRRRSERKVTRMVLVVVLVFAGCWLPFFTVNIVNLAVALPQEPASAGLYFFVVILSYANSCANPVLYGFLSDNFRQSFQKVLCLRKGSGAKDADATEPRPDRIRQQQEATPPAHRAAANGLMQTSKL
# In short: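 CHO-K1 cells stably expressing human SSTR5 were treated 20 min at 37 °C with compounds plus 1.6 μM NKH477 in HBSS, 0.5 mM HEPES pH 7.4, 0.1% BSA, 0.2 mM IBMX. Lysate cAMP measured by HTRF against a standard curve; EC50 from cAMP-versus-concentration plots.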
# [2] = molecular target: T2, human somatostatin receptor subtype 2 (Homo sapiens, UniProt P30874); assay: cAMP assay for SST2R (inhibition of cAMP in CHO-K1 cells); assay type: cell-based; settings: Table B; inhibition of cAMP via human SST2 receptor; read-out: SST2 potency
# T2 construct: expressed in transfected cells
# T2 sequence (P30874 whole entry): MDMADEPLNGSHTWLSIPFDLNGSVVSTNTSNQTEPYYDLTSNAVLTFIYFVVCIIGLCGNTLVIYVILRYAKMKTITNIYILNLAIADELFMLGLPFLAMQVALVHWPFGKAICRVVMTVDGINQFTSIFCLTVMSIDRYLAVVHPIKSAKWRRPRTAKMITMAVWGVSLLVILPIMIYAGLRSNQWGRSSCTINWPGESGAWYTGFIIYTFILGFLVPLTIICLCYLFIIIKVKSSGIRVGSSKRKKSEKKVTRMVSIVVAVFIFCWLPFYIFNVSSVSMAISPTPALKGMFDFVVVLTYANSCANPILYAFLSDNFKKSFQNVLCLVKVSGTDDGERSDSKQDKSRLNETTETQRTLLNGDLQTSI
# In short: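 CHO-K1 cells stably expressing human SSTR2, plated 4 days prior, treated 20 min at 37° C with 1.6 μM NKH477 plus compound dilutions in HBSS/HEPES pH 7.4/0.1% BSA/0.2 mM IBMX. Lysate cAMP measured by HTRF against standard curve; EC50 from concentration-response.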
structure (smiles),measurement,setting,value
"CC1(C)CC(NC(=O)c2cncc(-c3cc(F)cc(F)c3)c2N2CC[C@](C)(N)C2)C1 [1-22, 4-[(3S)-3-amino-3-methylpyrrolidin-1-yl]-5-(3,5-difluorophenyl)-N-(3,3-dimethylcyclobutyl)pyridine-3-carboxamide]",EC50,[1]; Table A,< 10 nM
same,Fold selectivity for SST5 vs SST2,[1]; Table B,++ (++=100 to 499)
same,EC50,[1]; Table B,< 10 nM
same,EC50,[2],100 to 1000 nM
"COc1cc(-c2c(C#N)ncc(C(=O)NCC(C)C)c2N2CC[C@](C)(N)C2)ccn1 [1-270, 4-[(3S)-3-amino-3-methylpyrrolidin-1-yl]-2-cyano-2′-methoxy-N-(2-methylpropyl)-[3,4′-bipyridine]-5-carboxamide]",EC50,[1]; Table A,< 10 nM
same,Fold selectivity for SST5 vs SST2,[1]; Table B,+++ (+++=>500)
same,EC50,[1]; Table B,< 10 nM
same,EC50,[2],> 1000 nM
"Cc1ncc(C(=O)NC2CCC(F)(F)CC2)c(N2CC[C@](C)(N)C2)c1-c1cc(F)cc(F)c1 [1-181, 4-[(3S)-3-amino-3-methylpyrrolidin-1-yl]-N-(4,4-difluorocyclohexyl)-5-(3,5-difluorophenyl)-6-methylpyridine-3-carboxamide]",EC50,[1]; Table A,< 10 nM
same,Fold selectivity for SST5 vs SST2,[1]; Table B,+++ (+++=>500)
same,EC50,[1]; Table B,< 10 nM
same,EC50,[2],100 to 1000 nM
"N[C@H]1CCN(c2c(C(=O)NC3CCC(F)(F)CC3)cnc(C(F)(F)F)c2-c2cc(F)cc(F)c2)C1 [1-214, 4-[(3S)-3-aminopyrrolidin-1-yl]-N-(4,4-difluorocyclohexyl)-5-(3,5-difluorophenyl)-6-(trifluoromethyl)pyridine-3-carboxamide]",EC50,[1]; Table A,< 10 nM
same,Fold selectivity for SST5 vs SST2,[1]; Table B,+++ (+++=>500)
same,EC50,[1]; Table B,< 10 nM
same,EC50,[2],> 1000 nM
"C[C@]1(N)CCN(c2c(C(=O)NCc3ncccn3)cnc(C#N)c2-c2cc(F)cc(F)c2)C1 [1-108, 4-[(3S)-3-amino-3-methylpyrrolidin-1-yl]-6-cyano-5-(3,5-difluorophenyl)-N-[(pyrimidin-2-yl)methyl]pyridine-3-carboxamide]",EC50,[1]; Table A,< 10 nM
same,Fold selectivity for SST5 vs SST2,[1]; Table B,+++ (+++=>500)
same,EC50,[1]; Table B,< 10 nM
same,EC50,[2],> 1000 nM
"Cc1ncc(C(=O)NC23CC(C2)C3)c(N2CC[C@](C)(N)C2)c1-c1cc(F)cc(F)c1 [1-74, 4-[(3S)-3-amino-3-methylpyrrolidin-1-yl]-N-{bicyclo[1.1.1]pentan-1-yl}-5-(3,5-difluorophenyl)-6-methylpyridine-3-carboxamide]",EC50,[1]; Table A,< 10 nM
same,Fold selectivity for SST5 vs SST2,[1]; Table B,+++ (+++=>500)
same,EC50,[1]; Table B,< 10 nM
same,EC50,[2],> 1000 nM
"C[C@H](NC(=O)c1cnc(C#N)c(-c2cc(F)cc(Cl)c2)c1N1CC[C@](C)(N)C1)c1ccccn1 [1-245, 4-[(3S)-3-amino-3-methylpyrrolidin-1-yl]-5-(3-chloro-5-fluorophenyl)-6-cyano-N-[(1 S)-1-(pyridin-2-yl)ethyl]pyridine-3-carboxamide]",EC50,[1]; Table A,< 10 nM
same,Fold selectivity for SST5 vs SST2,[1]; Table B,+++ (+++=>500)
same,EC50,[1]; Table B,< 10 nM
same,EC50,[2],> 1000 nM
"N[C@H]1CCN(c2c(C(=O)NC3CCCCC3)cnc(C(F)(F)F)c2-c2cc(F)cc(F)c2)C1 [1-213, 4-[(3S)-3-aminopyrrolidin-1-yl]-N-cyclohexyl-5-(3,5-difluorophenyl)-6-(trifluoromethyl)pyridine-3-carboxamide]",EC50,[1]; Table A,< 10 nM
same,Fold selectivity for SST5 vs SST2,[1]; Table B,+++ (+++=>500)
same,EC50,[1]; Table B,< 10 nM
same,EC50,[2],100 to 1000 nM
"Cc1ncc(-c2c(C#N)ncc(C(=O)N[C@@H](C)C3CC3)c2N2CC[C@](C)(N)C2)s1 [1-128, 4-[(3S)-3-amino-3-methylpyrrolidin-1-yl]-6-cyano-N-[(1S)-1-cyclopropylethyl]-5-(2-methyl-1,3-thiazol-5-yl)pyridine-3-carboxamide]",EC50,[1]; Table A,< 10 nM
same,Fold selectivity for SST5 vs SST2,[1]; Table B,+++ (+++=>500)
same,EC50,[1]; Table B,< 10 nM
same,EC50,[2],100 to 1000 nM
"COc1ncc(C(=O)N[C@@H](C)C(F)(F)F)c(N2CC[C@](C)(N)C2)c1-c1ccc(Cl)c(F)c1 [1-260, 4-[(3S)-3-amino-3-methylpyrrolidin-1-yl]-5-(4-chloro-3-fluorophenyl)-6-methoxy-N-[(2S)-1,1,1-trifluoropropan-2-yl]pyridine-3-carboxamide]",EC50,[1]; Table A,< 10 nM
same,Fold selectivity for SST5 vs SST2,[1]; Table B,+++ (+++=>500)
same,EC50,[1]; Table B,< 10 nM
same,EC50,[2],100 to 1000 nM
"CC(NC(=O)c1cnc(C#N)c(-c2cc(F)cc(F)c2)c1N1CC[C@](C)(N)C1)c1ccon1 (stereo partly drawn) [1-132, 4-[(3S)-3-amino-3-methylpyrrolidin-1-yl]-6-cyano-5-(3,5-difluorophenyl)-N-[1-(1,2-oxazol-3-yl)ethyl]pyridine-3-carboxamide]",EC50,[1]; Table A,< 10 nM
same,Fold selectivity for SST5 vs SST2,[1]; Table B,+++ (+++=>500)
same,EC50,[1]; Table B,< 10 nM
same,EC50,[2],> 1000 nM
"C[C@H](NC(=O)c1cnc(C#N)c(-c2cc(F)cc(F)c2)c1N1CC[C@](C)(N)C1)C(F)(F)F [1-192, 4-[(3S)-3-amino-3-methylpyrrolidin-1-yl]-6-cyano-5-(3,5-difluorophenyl)-N-[(2S)-1,1,1-trifluoropropan-2-yl]pyridine-3-carboxamide]",EC50,[1]; Table A,< 10 nM
same,Fold selectivity for SST5 vs SST2,[1]; Table B,++ (++=100 to 499)
same,EC50,[1]; Table B,< 10 nM
same,EC50,[2],10 to 100 nM
"Cc1ncc(C(=O)N[C@@H](C)C(F)(F)F)c(N2CC[C@](C)(N)C2)c1-c1ccc(F)c(F)c1 [1-279, 4-[(3S)-3-amino-3-methylpyrrolidin-1-yl]-5-(3,4-difluorophenyl)-6-methyl-N-[(2S)-1,1,1-trifluoropropan-2-yl]pyridine-3-carboxamide]",EC50,[1]; Table A,< 10 nM
same,Fold selectivity for SST5 vs SST2,[1]; Table B,+++ (+++=>500)
same,EC50,[1]; Table B,< 10 nM
same,EC50,[2],100 to 1000 nM
"C[C@H](NC(=O)c1cncc(-c2cccc3c2OC(F)(F)O3)c1N1CC[C@](C)(N)C1)C1CC1 [1-163, 4-[(3S)-3-amino-3-methylpyrrolidin-1-yl]-N-[(1S)-1-cyclopropylethyl]-5-(2,2-difluoro-2H-1,3-benzodioxol-4-yl)pyridine-3-carboxamide]",EC50,[1]; Table A,< 10 nM
same,Fold selectivity for SST5 vs SST2,[1]; Table B,++ (++=100 to 499)
same,EC50,[1]; Table B,< 10 nM
same,EC50,[2],100 to 1000 nM
"C[C@]1(N)CCN(c2c(C(=O)NCC3CC3)cnc(C#N)c2-c2cc(F)cc(F)c2)C1 [1-86, 4-[(3S)-3-amino-3-methylpyrrolidin-1-yl]-6-cyano-N-(cyclopropylmethyl)-5-(3,5-difluorophenyl)pyridine-3-carboxamide]",EC50,[1]; Table A,< 10 nM
same,Fold selectivity for SST5 vs SST2,[1]; Table B,+++ (+++=>500)
same,EC50,[1]; Table B,< 10 nM
same,EC50,[2],100 to 1000 nM
"COc1cc(C#N)cc(-c2cncc(C(=O)N[C@@H](C)C3CC3)c2N2CC[C@](C)(N)C2)c1 [1-96, 4-[(3S)-3-amino-3-methylpyrrolidin-1-yl]-5-(3-cyano-5-methoxyphenyl)-N-[(1S)-1-cyclopropylethyl]pyridine-3-carboxamide]",EC50,[1]; Table A,< 10 nM
same,Fold selectivity for SST5 vs SST2,[1]; Table B,++ (++=100 to 499)
same,EC50,[1]; Table B,< 10 nM
same,EC50,[2],100 to 1000 nM
"Cc1cccc(NC(=O)c2cncc(-c3ccnc(C#N)c3)c2N2CC[C@](C)(N)C2)c1 [1-5, 4-[(3S)-3-amino-3-methylpyrrolidin-1-yl]-2′-cyano-N-(3-methylphenyl)-[3,4′-bipyridine]-5-carboxamide]",EC50,[1]; Table A,< 10 nM
same,Fold selectivity for SST5 vs SST2,[1]; Table B,+++ (+++=>500)
same,EC50,[1]; Table B,< 10 nM
same,EC50,[2],100 to 1000 nM
"Cc1ncc(C(=O)NC23CC(F)(C2)C3)c(N2CC[C@H](N)C2)c1-c1cc(F)cc(Cl)c1 [1-278, 4-[(3S)-3-aminopyrrolidin-1-yl]-5-(3-chloro-5-fluorophenyl)-N-{3-fluorobicyclo[1.1.1]pentan-1-yl}-6-methylpyridine-3-carboxamide]",EC50,[1]; Table A,< 10 nM
same,Fold selectivity for SST5 vs SST2,[1]; Table B,+++ (+++=>500)
same,EC50,[1]; Table B,< 10 nM
same,EC50,[2],> 1000 nM
"Cc1cccc2[nH]c(-c3cncc(C(=O)N4CCC[C@H]4C(F)(F)F)c3N3CC[C@](C)(N)C3)nc12 [2-41, (3S)-3-methyl-1-[3-(4-methyl-1H-1,3-benzodiazol-2-yl)-5-[(2S)-2-(trifluoromethyl)pyrrolidine-1-carbonyl]pyridin-4-yl]pyrrolidin-3-amine]",EC50,[1]; Table A,< 10 nM
same,Fold selectivity for SST5 vs SST2,[1]; Table B,+ (+=10 to 99)
same,EC50,[1]; Table B,< 10 nM
same,EC50,[2],100 to 1000 nM
"C[C@]1(N)CCN(c2c(C(=O)NC3CCC3)cnc(C#N)c2-c2cc(F)cc(F)c2)C1 [1-87, 4-[(3S)-3-amino-3-methylpyrrolidin-1-yl]-6-cyano-N-cyclobutyl-5-(3,5-difluorophenyl)pyridine-3-carboxamide]",EC50,[1]; Table A,< 10 nM
same,Fold selectivity for SST5 vs SST2,[1]; Table B,+++ (+++=>500)
same,EC50,[1]; Table B,< 10 nM
same,EC50,[2],100 to 1000 nM
"Cc1cccc2[nH]c(-c3cncc(C(=O)N4C5CC6CC(C5)CC4C6)c3N3CC[C@](C)(N)C3)nc12 [2-26, (3S)-1-(3-{2-azatricyclo[3.3.1.1^3,7]decane-2-carbonyl}-5-(4-methyl-1H-1,3-benzodiazol-2-yl)pyridin-4-yl)-3-methylpyrrolidin-3-amine]",EC50,[1]; Table A,< 10 nM
same,Fold selectivity for SST5 vs SST2,[1]; Table B,+++ (+++=>500)
same,EC50,[1]; Table B,< 10 nM
same,EC50,[2],100 to 1000 nM
"COc1ncc(C(=O)NC2CC(F)(F)C2)c(N2CC[C@](C)(N)C2)c1-c1cc(F)cc(F)c1 [1-137, 4-[(3S)-3-amino-3-methylpyrrolidin-1-yl]-N-(3,3-difluorocyclobutyl)-5-(3,5-difluorophenyl)-6-methoxypyridine-3-carboxamide]",EC50,[1]; Table A,< 10 nM
same,Fold selectivity for SST5 vs SST2,[1]; Table B,+++ (+++=>500)
same,EC50,[1]; Table B,< 10 nM
same,EC50,[2],100 to 1000 nM
"Cc1cc(C)cc(NC(=O)c2cncc(-c3cc(C)cc(C)c3)c2N2CC[C@@H](N)C2)c1 (single isomer, unassigned) [1-2]",EC50,[1]; Table A,10 to 100 nM
same,EC50,[1]; Table B,10 to 100 nM
same,EC50,[2],< 10 nM
